PubChem BioAssay (NCI)
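Assay format: 96-well plates, 48-hour exposure. GI50 is the concentration that inhibits growth by half. TGI denotes the concentration required for complete inhibition of growth.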

What was measured:
Assay in all cases: NCI anticancer screen, dose series, 48 h
ACHN renal = test system: ACHN renal
CCRF-CEM leukemia = test system: CCRF-CEM leukemia
HL-60(TB) leukemia = test system: HL-60(TB) leukemia
HT29 colon = test system: HT29 colon
KM12 colon = test system: KM12 colon
M14 melanoma = test system: M14 melanoma
MALME-3M melanoma = test system: MALME-3M melanoma
OVCAR-4 ovarian = test system: OVCAR-4 ovarian
SK-MEL-5 melanoma = test system: SK-MEL-5 melanoma
SN12C renal = test system: SN12C renal
UACC-257 melanoma = test system: UACC-257 melanoma

Cc1ccc(-c2cc(-c3ccc(Cl)cc3)nc(/N=C3\C(=O)N(CN4CCOCC4)c4ccccc43)n2)cc1
TGI (ACHN renal): 63.8 µM | TGI (CCRF-CEM leukemia): 88.2 µM | TGI (HL-60(TB) leukemia): 26.3 µM | TGI (HT29 colon): 65.1 µM | TGI (KM12 colon): 58.5 µM | TGI (M14 melanoma): 87.4 µM | TGI (MALME-3M melanoma): 69.4 µM | TGI (OVCAR-4 ovarian): > 100 µM | TGI (SK-MEL-5 melanoma): 36.1 µM | TGI (SN12C renal): > 100 µM | TGI (UACC-257 melanoma): 46.4 µM

COC(=O)C(=O)C(C(=O)C1=NS(=O)(=O)c2cc(S(N)(=O)=O)c(Cl)cc2N1)c1nc2ccc(C(=O)c3ccccc3)cc2[nH]c1=O (configuration not stated)
TGI (ACHN renal): > 100 µM | TGI (CCRF-CEM leukemia): > 100 µM | TGI (HT29 colon): > 100 µM | TGI (KM12 colon): > 100 µM | TGI (M14 melanoma): > 100 µM | TGI (MALME-3M melanoma): > 100 µM | TGI (OVCAR-4 ovarian): > 100 µM | TGI (SK-MEL-5 melanoma): > 100 µM | TGI (SN12C renal): > 100 µM | TGI (UACC-257 melanoma): > 100 µM

CC(N)C(=O)OCN1C(=O)C2C3C=CC(C2C1=O)C1C2C(=O)N(COC(=O)C(C)N)C(=O)C2C31 (configuration not stated)
TGI (ACHN renal): 70.4 µM | TGI (CCRF-CEM leukemia): 67.2 µM | TGI (HL-60(TB) leukemia): 62.2 µM | TGI (HT29 colon): > 100 µM | TGI (KM12 colon): 41.6 µM | TGI (M14 melanoma): 36.7 µM | TGI (OVCAR-4 ovarian): 40.9 µM | TGI (SK-MEL-5 melanoma): 34.1 µM | TGI (SN12C renal): 55.8 µM | TGI (UACC-257 melanoma): 75.4 µM

CCN1CCN(c2nc3ccccc3nc2C(=O)c2ccc(OC)cc2)CC1
TGI (ACHN renal): > 100 µM | TGI (HL-60(TB) leukemia): > 100 µM | TGI (HT29 colon): > 100 µM | TGI (KM12 colon): > 100 µM | TGI (M14 melanoma): 37.3 µM | TGI (MALME-3M melanoma): 62.2 µM | TGI (OVCAR-4 ovarian): > 100 µM | TGI (SK-MEL-5 melanoma): > 100 µM | TGI (UACC-257 melanoma): 35.3 µM

C=C1C(=O)OC2/C=C(\C)C3OC3/C=C(/C(=O)OC)C(O)C(OC(=O)C3(C)OC3C)C12 (configuration not stated)
TGI (ACHN renal): 10.7 µM | TGI (CCRF-CEM leukemia): 2.63 µM | TGI (HT29 colon): 3.63 µM | TGI (KM12 colon): 11.2 µM | TGI (M14 melanoma): 4.7 µM | TGI (MALME-3M melanoma): 3.21 µM | TGI (OVCAR-4 ovarian): 8.77 µM | TGI (SK-MEL-5 melanoma): 3.42 µM | TGI (SN12C renal): 5.64 µM | TGI (UACC-257 melanoma): 3.45 µM

CS/C(C#N)=C(\C#N)SC
TGI (ACHN renal): 29.9 µM | TGI (CCRF-CEM leukemia): > 100 µM | TGI (HL-60(TB) leukemia): 6.39 µM | TGI (HT29 colon): 64.2 µM | TGI (KM12 colon): 37.7 µM | TGI (M14 melanoma): 6.56 µM | TGI (MALME-3M melanoma): 30.1 µM | TGI (OVCAR-4 ovarian): 38.2 µM | TGI (SK-MEL-5 melanoma): 49.1 µM | TGI (SN12C renal): 34.4 µM | TGI (UACC-257 melanoma): 30.6 µM

Cc1ccccc1[P+](C)(c1ccccc1C)c1ccccc1C
TGI (ACHN renal): 29.3 µM | TGI (CCRF-CEM leukemia): 0.0867 µM | TGI (HT29 colon): 19.1 µM | TGI (M14 melanoma): 41.1 µM | TGI (MALME-3M melanoma): 22.9 µM | TGI (OVCAR-4 ovarian): 18.1 µM | TGI (SK-MEL-5 melanoma): 16.8 µM | TGI (SN12C renal): 43.9 µM | TGI (UACC-257 melanoma): 15.8 µM

CN(C)CC1CCCC(CN2CCCCC2)C1=O (configuration not stated)
TGI (ACHN renal): 13.6 µM | TGI (CCRF-CEM leukemia): 5.48 µM | TGI (HL-60(TB) leukemia): 11.8 µM | TGI (HT29 colon): 25.1 µM | TGI (KM12 colon): 44.9 µM | TGI (M14 melanoma): 18.7 µM | TGI (MALME-3M melanoma): 6.5 µM | TGI (OVCAR-4 ovarian): 7.75 µM | TGI (SK-MEL-5 melanoma): 33.5 µM | TGI (SN12C renal): 16.8 µM | TGI (UACC-257 melanoma): 30.8 µM

[O-]c1c[n+](CCCC[n+]2cc([O-])on2)no1
TGI (ACHN renal): > 100 µM | TGI (CCRF-CEM leukemia): > 100 µM | TGI (HL-60(TB) leukemia): > 100 µM | TGI (HT29 colon): > 100 µM | TGI (KM12 colon): > 100 µM | TGI (M14 melanoma): > 100 µM | TGI (MALME-3M melanoma): > 100 µM | TGI (OVCAR-4 ovarian): > 100 µM | TGI (SK-MEL-5 melanoma): > 100 µM | TGI (SN12C renal): > 100 µM | TGI (UACC-257 melanoma): > 100 µM

CC1=C(C#N)C23C(=O)c4ccccc4C(O)=C2C(=O)C=CC3(O)N1 (configuration not stated)
TGI (ACHN renal): 19.9 µM | TGI (CCRF-CEM leukemia): > 100 µM | TGI (HL-60(TB) leukemia): 15.2 µM | TGI (HT29 colon): 5.02 µM | TGI (KM12 colon): 38.6 µM | TGI (M14 melanoma): 13 µM | TGI (MALME-3M melanoma): 3.86 µM | TGI (OVCAR-4 ovarian): 4.16 µM | TGI (SK-MEL-5 melanoma): 2.75 µM | TGI (SN12C renal): 6.19 µM | TGI (UACC-257 melanoma): 4.56 µM

Cn1cc(-c2csc(-c3cn(C)c4ccc(Br)cc34)n2)c2cnccc21
GI50 (ACHN renal): 1.97 µM | TGI (ACHN renal): 3.4 µM | GI50 (HL-60(TB) leukemia): 1.48 µM | TGI (HL-60(TB) leukemia): 3.31 µM | GI50 (HT29 colon): 1.6 µM | TGI (HT29 colon): 3.09 µM | GI50 (KM12 colon): 1.97 µM | TGI (KM12 colon): 3.69 µM | GI50 (MALME-3M melanoma): 1.95 µM | TGI (MALME-3M melanoma): 3.48 µM | GI50 (OVCAR-4 ovarian): 1.68 µM | TGI (OVCAR-4 ovarian): 3.15 µM | GI50 (SK-MEL-5 melanoma): 1.7 µM | TGI (SK-MEL-5 melanoma): 3.09 µM | GI50 (SN12C renal): 1.53 µM | TGI (SN12C renal): 2.92 µM | GI50 (UACC-257 melanoma): 1.95 µM | TGI (UACC-257 melanoma): 3.63 µM

Oc1cccc(-c2ccc3c4c2O[C@H]2c5[nH]c6ccccc6c5C[C@@]5(O)[C@@H](C3)N(CC3CC3)CC[C@]425)c1
TGI (ACHN renal): 3.67 µM | TGI (CCRF-CEM leukemia): 10.4 µM | TGI (HL-60(TB) leukemia): 4.03 µM | TGI (HT29 colon): 3.09 µM | TGI (KM12 colon): 3.5 µM | TGI (M14 melanoma): 3.07 µM | TGI (MALME-3M melanoma): 3.38 µM | TGI (OVCAR-4 ovarian): 2.96 µM | TGI (SK-MEL-5 melanoma): 10.3 µM | TGI (SN12C renal): 3.04 µM

Cc1cccc(O)c1-c1nnc(CCCCCCCCc2nnc(-c3c(C)cccc3O)n2N)n1N
TGI (ACHN renal): > 100 µM | TGI (CCRF-CEM leukemia): 37.1 µM | TGI (HL-60(TB) leukemia): > 100 µM | TGI (HT29 colon): > 100 µM | TGI (KM12 colon): > 100 µM | TGI (M14 melanoma): > 100 µM | TGI (MALME-3M melanoma): > 100 µM | TGI (OVCAR-4 ovarian): > 56.1 µM | TGI (SK-MEL-5 melanoma): > 100 µM | TGI (SN12C renal): > 100 µM | TGI (UACC-257 melanoma): > 100 µM

O=c1oc2ccccc2n1P(=O)(n1c(=O)oc2ccccc21)n1c(=O)oc2ccccc21
TGI (ACHN renal): > 100 µM | TGI (CCRF-CEM leukemia): > 100 µM | TGI (HL-60(TB) leukemia): > 100 µM | TGI (HT29 colon): > 100 µM | TGI (KM12 colon): > 100 µM | TGI (M14 melanoma): > 100 µM | TGI (MALME-3M melanoma): > 100 µM | TGI (OVCAR-4 ovarian): > 100 µM | TGI (SN12C renal): > 100 µM | TGI (UACC-257 melanoma): > 100 µM
